For 26 compounds, IC50 results are on record in US10023592B2, “Bromodomain inhibitors” (Celgene Quanticel Research, Inc., priority 2013, dated 2018).

The test system of test [1] is Raji, human Burkitts lymphoma cells. Briefly: Cell-MTS proliferation assay, Raji. Type of test: cell-based. Conditions: 168 hr. The procedure:
(§1) The Cell-MTS assay is a 7-day plate-based colorimetric assay which quantifies the amount of newly generated NADH in the presence or absence of test compound. The NADH level is used for the quantification of cancer cell proliferation.
(§2) Established cancer cell lines with a variety of driving mutations were obtained from American Type Culture Collection (ATCC) and routinely passaged according to ATCC protocols. For routine assay, these cells were seeded at densities which enabled ˜90% confluence after 7 days of culture. Raji, human Burkitts lymphoma cells, (cMYC) were seeded at 15,000 cells per 96-well. HL-60, human proleukemia cells, (NRAS, p16, p53, c-Myc amplified) were seeded at 5,000 cells per 96-well. NCI-H460, human non-small cell lung cancer cells, (KRAS, PIK3CA, STLK11, p16) were seeded at 3,000 cells per 96-well. 24 hr after plating, cells received an 11-point dilution of test compound with final concentration ranges from 100 μM to 2.0 nM. […] At the end of this incubation period, 80 μL of media is removed and 20 μL of CellTiter 96® AQueous Non-Radioactive Cell Proliferation Assay soln (Promega) was added. The cells were incubated until the OD490 was >0.6. IC50 values were calculated using the IDBS XLfit software package and include background subtracted OD490 values and normalization to DMSO controls. Cellular proliferation IC50 values were uploaded and archived using the Chem Biography Platform.
Background: Formazan colour is commonly taken as a measure of viable cells.

Test [2] relates to HL-60, human proleukemia cells. Briefly: Cell-MTS proliferation assay, HL-60. Type of test: cell-based. Conditions: 168 hr. On the procedure: as §1, §2
Test [3] concerns NCI-H460, human non-small cell lung cancer cells. Briefly: Cell-MTS proliferation assay, NCI-H460. Type of test: cell-based. Conditions: Homo sapiens, 168 hr. The procedure:
as §1, §2

The target in a further test is BRD4(BD1) (Homo sapiens (Human), UniProt O60885). Briefly: In vitro enzyme inhibition assay (BRD4 AlphaScreen). In kind it is binding. In a few lines:
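His-tagged BRD4 tested by AlphaScreen for binding of biotinylated H4K5/8/12/16-tetraacetyl peptide. After 20 min at room temperature, streptavidin donor and nickel chelate acceptor beads added (5 μg/mL final each). IC50 determined.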
A general note: In Alpha technology, singlet oxygen from a donor bead excites a nearby acceptor bead.

The mark [4] stands for this setting: Homo sapiens, Raji, Cell-MTS proliferation.
The mark [5] stands for this setting: Homo sapiens, HL-60, Cell-MTS proliferation.
The mark [6] stands for this setting: NCI-H460, Cell-MTS proliferation.
Setting [7] is: Homo sapiens, Raji, Cell-MTS, class symbols A/B/C.
[8] abbreviates: Homo sapiens, HL-60, Cell-MTS, class symbols A/B/C.
[9] abbreviates: in vitro enzyme inhibition assay.
The mark [10] stands for this setting: Homo sapiens, Cell-MTS proliferation, HL-60 cells.
Where [11] appears, read: Cell-MTS proliferation, NCI-H460 cells.

As a reminder, the IC50 is the concentration that gives 50% inhibition. The low end stands for greater potency in that assay, the high end for weaker potency in that assay. Take `Cc1cc(-c2cc(OS(N)(=O)=O)ccc2OCC2CC2)cn(C)c1=O` [Example 215, [4-(cyclopropylmethoxy)-3-(1,5-dimethyl-6-oxopyridin-3-yl)phenyl]sulfamate]: the 50% inhibitory concentration (IC50) was under 500 nM in test [1] (setting [4]), under 500 nM in test [2] (setting [5]) and over 5000 nM in test [3] (setting [6]).
In the case of `Cc1c(-c2cc(NS(C)(=O)=O)ccc2Oc2ccc(F)cc2F)cn(C)c(=O)c1C` [Example 103, N-[4-(2,4-difluorophenoxy)-3-(1,4,5-trimethyl-6-oxopyridin-3-yl)phenyl]methanesulfonamide], the IC50 is 500 to 5000 nM in test [1] (setting [7]); under 500 nM in test [2] (setting [8]); over 5000 nM in test [3] (NCI-H460, Cell-MTS, class symbols A/B/C).
With `Cn1cc(-c2cc(S(C)(=O)=O)ccc2OCC2CC2)c2cc(C(F)(F)F)ccc2c1=O` [Example 197], the results for the IC50 in test [1] (setting [4]) and in test [3] (setting [6]) were 500 to 5000 nM and over 5000 nM, respectively.
In the case of `CCS(=O)(=O)c1ccc(OCC2CC2)c(-c2cn(C)c(=O)c3c2OCC(=O)N3)c1` [Example 365, 8-[2-(cyclopropylmethoxy)-5-ethylsulfonylphenyl]-6-methyl-4H-pyrido[4,3-b][1,4]oxazine-3,5-dione], the IC50 in test [1] (setting [4]) was under 500 nM; in test [2] (setting [5]) it was under 500 nM; in test [3] (setting [6]), over 5000 nM.
As to `CCS(=O)(=O)c1ccc(NCC2CC2)c(-c2cc(Cl)c(=O)n(C)c2)c1` [Example 275], the figures for the IC50 in test [1] (setting [4]), in test [2] (setting [5]) and in test [3] (setting [6]) were under 500 nM, under 500 nM and over 5000 nM, respectively.
In the case of `CCCOc1ccc(S(C)(=O)=O)cc1-c1cn(C)c(=O)c2cnc(-c3cnn(C)c3)nc12` [Example 228], the IC50 in test [1] (setting [4]) was 500 to 5000 nM; in test [2] (setting [5]), under 500 nM; in test [3] (setting [6]) it was over 5000 nM.
In the case of `Cn1cc(-c2nc(NS(C)(=O)=O)ncc2Oc2ccc(F)cc2F)c2ccccc2c1=O` [Example 165, N-[5-(2,4-difluorophenoxy)-4-(2-methyl-1-oxoisoquinolin-4-yl)pyrimidin-2-yl]methanesulfonamide], the IC50 in test [1] (setting [4]) was 500 to 5000 nM; in test [3] (setting [6]), over 5000 nM; at BRD4(BD1) (setting [9]) it was under 500 nM.
Take `COc1cc(-c2nc(NS(C)(=O)=O)ncc2Oc2ccc(F)cc2F)cn(C)c1=O` [Example 167, N-[5-(2,4-difluorophenoxy)-4-(5-methoxy-1-methyl-6-oxopyridin-3-yl)pyrimidin-2-yl]methanesulfonamide]: the IC50 was 500 to 5000 nM in test [1] (setting [4]), over 5000 nM in test [3] (setting [6]) and under 500 nM against BRD4(BD1) (setting [9]).
For the compound `C#Cc1cc(-c2cc(NS(C)(=O)=O)ccc2Oc2ccc(F)cc2F)cn(C)c1=O` [Example 286, N-[4-(2,4-difluorophenoxy)-3-(5-ethynyl-1-methyl-6-oxopyridin-3-yl)phenyl]methanesulfonamide], the IC50 is 500 to 5000 nM in test [1] (setting [4]), over 5000 nM in test [3] (setting [6]) and under 500 nM at BRD4(BD1) (setting [9]).
Regarding `CCS(=O)(=O)Nc1ncc(Oc2ccc(F)cc2F)c(-c2cc(OC)c(=O)n(C)c2)n1` [Example 168, N-[5-(2,4-difluorophenoxy)-4-(5-methoxy-1-methyl-6-oxopyridin-3-yl)pyrimidin-2-yl]ethanesulfonamide], the IC50 in test [1] (setting [4]) is under 500 nM; in test [2] (setting [5]), under 500 nM; in test [3] (setting [6]), over 5000 nM.
On to `Cc1cc(-c2nc(CS(C)(=O)=O)ncc2Oc2ccc(F)cc2F)cn(C)c1=O` [Example 147, 5-[5-(2,4-difluorophenoxy)-2-(methylsulfonylmethyl)pyrimidin-4-yl]-1,3-dimethylpyridin-2-one], for which the IC50 in test [1] (setting [4]) is 500 to 5000 nM; in test [3] (setting [6]) it was over 5000 nM; on BRD4(BD1) (setting [9]) it was under 500 nM.
The corresponding values for `Cn1cc(-c2nc(S(C)(=O)=O)ccc2OCC2CC2)c2cc(F)ccc2c1=O` [Example 202, 4-[3-(cyclopropylmethoxy)-6-methylsulfonylpyridin-2-yl]-6-fluoro-2-methylisoquinolin-1-one] are under 500 nM, over 5000 nM and under 500 nM.
Regarding `Cc1cc(-c2cc(S(N)(=O)=O)ccc2NCC2CC2)cn(C)c1=O` [Example 452, 4-(cyclopropylmethylamino)-3-(1,5-dimethyl-6-oxopyridin-3-yl) benzenesulfonamide], the results for the IC50 (in test [2] (setting [10]); in test [3] (setting [11]); against BRD4(BD1) (setting [9])) were 500 to 5000 nM, over 5000 nM and 500 to 5000 nM, respectively.
With `CCS(=O)(=O)Nc1ccc(Oc2ccc(F)cc2F)c(-c2cc(O)c(=O)n(C)c2)c1` [Example 451, N-[4-(2,4-difluorophenoxy)-3-(5-hydroxy-1-methyl-6-oxopyridin-3-yl)phenyl]ethanesulfonamide], the IC50 in test [2] (setting [10]) was under 500 nM; in test [3] (setting [11]), over 5000 nM; at BRD4(BD1) (setting [9]), under 500 nM.
For the compound `Cn1cc(-c2cccc(S(=O)(=O)NCCO)c2)c2ccccc2c1=O` [Example 22, N-(2-hydroxyethyl)-3-(2-methyl-1-oxoisoquinolin-4-yl)benzenesulfonamide], the IC50 (in test [1] (setting [7]); in test [2] (setting [8]); against BRD4(BD1) (class symbols A/B/C)) was 500 to 5000 nM each time.
As for `COc1ccc(-c2cn(C)c(=O)c3ccccc23)cc1C(=O)NCc1ccccc1` [Example 18, N-benzyl-2-methoxy-5-(2-methyl-1-oxoisoquinolin-4-yl)benzamide], the IC50 (in test [1] (setting [7]); in test [2] (setting [8]); on BRD4(BD1) (class symbols A/B/C)) was 500 to 5000 nM in each case.
Consider `Cn1cc(-c2cccc(S(=O)(=O)N3CCCC3)c2)c2ccccc2c1=O` [Example 7, 2-methyl-4-(3-pyrrolidin-1-yl-sulfonylphenyl)isoquinolin-1-one], for which the IC50 is under 500 nM in test [1] (setting [7]), 500 to 5000 nM in test [2] (setting [8]) and 500 to 5000 nM against BRD4(BD1) (class symbols A/B/C).
For `Cn1cc(-c2cc(NS(C)(=O)=O)ccc2Cl)c2ccccc2c1=O` [Example 38, N-[4-chloro-3-(2-methyl-1-oxoisoquinolin-4-yl)phenyl] methanesulfonamide], the IC50 in test [1] (setting [7]) is 500 to 5000 nM; in test [2] (setting [8]) it was under 500 nM; against BRD4(BD1) (class symbols A/B/C), under 500 nM.
Turning to `Cn1cc(-c2cccc(NS(C)(=O)=O)c2)c2ccncc2c1=O` [Example 51, N-[3-(2-methyl-1-oxo-2,7-naphthyridin-4-yl)phenyl]methanesulfonamide], the IC50 in test [1] (setting [7]) was over 5000 nM; in test [2] (setting [8]), 500 to 5000 nM; at BRD4(BD1) (class symbols A/B/C) it was 500 to 5000 nM.
As for `CCS(=O)(=O)Nc1cccc(-c2cn(C)c(=O)c3cc(F)ccc23)c1` [Example 62, N-[3-(7-fluoro-2-methyl-1-oxoisoquinolin-4-yl)phenyl]ethanesulfonamide], the values for the half-maximal inhibitory concentration (IC50) (in test [1] (setting [7]); in test [2] (setting [8]); at BRD4(BD1) (class symbols A/B/C)) were 500 to 5000 nM, under 500 nM and under 500 nM, respectively.
In the case of `CCNS(=O)(=O)c1cccc(-c2cn(C)c(=O)c3cnccc23)c1` [Example 53, N-ethyl-3-(2-methyl-1-oxo-2,7-naphthyridin-4-yl) benzenesulfonamide], the IC50 in test [1] (Cell-MTS, class symbols A/B/C) is over 5000 nM; in test [2] (Cell-MTS, class symbols A/B/C) it was over 5000 nM; against BRD4(BD1) (class symbols A/B/C) it was 500 to 5000 nM.
As for `Cn1cc(-c2ccc3c(=O)n(C)cc(-c4cc(NS(C)(=O)=O)c(F)cc4F)c3c2)cn1` [Example 43, N-[2,4-difluoro-5-[2-methyl-6-(1-methylpyrazol-4-yl)-1-oxoisoquinolin-4-yl]phenyl]methane-sulfonamide], the IC50 (in test [1] (setting [7]); in test [2] (setting [8]); at BRD4(BD1) (class symbols A/B/C)) was under 500 nM each time.
On to `Cn1cc(-c2cc(NS(C)(=O)=O)cc(C(F)(F)F)c2)c2ccccc2c1=O` [Example 40, N-[3-(2-methyl-1-oxoisoquinolin-4-yl)-5-(trifluoromethyl)phenyl] methanesulfonamide], for which the IC50 (in test [1] (setting [7]); in test [2] (setting [8]); on BRD4(BD1) (class symbols A/B/C)) was 500 to 5000 nM each time.
As for `Cn1cc(-c2ccc3c(=O)n(C)cc(-c4cc(NS(C)(=O)=O)ccc4F)c3c2)cn1` [Example 41, N-[4-fluoro-3-[2-methyl-6-(1-methylpyrazol-4-yl)-1-oxoisoquinolin-4-yl]phenyl]methanesulfonamide], the 50% inhibitory concentration (IC50) (in test [1] (setting [7]); in test [2] (setting [8]); against BRD4(BD1) (class symbols A/B/C)) was under 500 nM each time.
`Cn1cc(-c2ccc(F)c(NS(C)(=O)=O)c2)c2ccccc2c1=O` [Example 37, N-[2-fluoro-5-(2-methyl-1-oxoisoquinolin-4-yl)phenyl] methanesulfonamide]: the IC50 was 500 to 5000 nM in test [1] (setting [7]), 500 to 5000 nM in test [2] (setting [8]) and under 500 nM against BRD4(BD1) (class symbols A/B/C).
In the case of `COc1cc(-c2nc(CS(C)(=O)=O)ncc2Oc2ccc(F)cc2F)cn(C)c1=O` [Example 146, 5-[5-(2,4-difluorophenoxy)-2-(methylsulfonylmethyl)pyrimidin-4-yl]-3-methoxy-1-methylpyridin-2-one], the results for the IC50 (in test [1] (setting [4]); in test [3] (setting [6]); at BRD4(BD1) (setting [9])) were 500 to 5000 nM, over 5000 nM and under 500 nM, respectively.
